Values quoted from earlier work as cited in US20090196940A1, “COMPOSITIONS AND METHODS FOR SUPPORTING HEAT SHOCK FUNCTION” (priority 2007, published 2009).

What was measured:
[1] = test system: heat shock proteins / HSF1; settings: in vitro, treated cells
[2] = test system: cultured mouse skeletal cells (HSP72)
HSP70 = settings: mice, administration of schisandrin B

C[C@@]12C[C@@]3(O)O[C@@H](O1)[C@]1(COC(=O)c4ccccc4)[C@H]3C[C@@]12O[C@@H]1O[C@H](CO)[C@@H](O)[C@H](O)[C@H]1O [paeoniflorin, Paeoniflorin]
levels of expression of heat shock proteins [1]: enhanced levels of expression of heat shock proteins | phosphorylation of HSF1 [1]: resulted in phosphorylation of HSF1

Geranylgeranylacetone
differentiation of myoblasts into myotubules [2]: facilitate the differentiation of myoblasts into myotubules | expression of HSP72 [2]: up-regulated the expression of HSP72 | muscular protein content [2]: increased muscular protein content in a dose-dependent manner

COc1cc2c(c(OC)c1OC)-c1c(cc3c(c1OC)OCO3)CC(C)C(C)C2 (stereo not drawn) [schisandrin B, Schisandrin B]
production of HSP70 (HSP70): increase the production of HSP70
